We go through 24 compounds from ChEMBL document CHEMBL3856189, “Synthesis of novel diterpenoid analogs with in-vivo antitumor activity” (Eur J Med Chem, 2016).

Assay [1] can be described thus: Antiproliferative activity against human MDA-MB-231 cells after 96 hrs by SRB assay. The assay is classed as functional, cell-based. To be noted: MDA-MB-231, 96 h. For orientation: Sulforhodamine B stains cellular protein and so reports cell mass.
A short description of assay [2]: Antiproliferative activity against human MCF7 cells after 96 hrs by SRB assay. The assay is classed as functional, cell-based. To be noted: MCF7, 96 h.
Assay [3] is described as follows: Antiproliferative activity against human T47D cells after 96 hrs by SRB assay. The format is functional, cell-based.
A short description of assay [4]: Antiproliferative activity against human PC3 cells after 96 hrs by SRB assay. The assay is classed as functional, cell-based. To be noted: PC-3, 96 h.
Assay [5] can be described thus: Antiproliferative activity against human DU145 cells after 96 hrs by SRB assay. To be noted: DU-145, 96 h. The format is functional, cell-based.
A short description of assay [6]: Antiproliferative activity against human HCT116 cells after 96 hrs by SRB assay. The assay is classed as functional, cell-based. To be noted: HCT-116, 96 h.
Assay [7] is described as follows: Antiproliferative activity against human HT-29 cells after 96 hrs by SRB assay. The assay is classed as functional, cell-based. To be noted: HT-29, 96 h.
A short description of assay [8]: Antiproliferative activity against human HL60 cells after 96 hrs by SRB assay. The assay is classed as functional, cell-based. To be noted: HL-60, 96 h.
The nature of assay [9]: Antiproliferative activity against HAF cells after 96 hrs by SRB assay. To be noted: Homo sapiens. The assay is classed as cell-based.
The nature of assay [10]: Selectivity index, ratio of IC50 for HAF cells to IC50 for human MDA-MB-231 cells. The assay is classed as functional.
Assay [11] relates to MCF7. The experiment in a line: Selectivity index, ratio of IC50 for HAF cells to IC50 for human MCF7 cells. The assay is classed as functional.
Assay [12] has as its system T47D. The experiment in a line: Selectivity index, ratio of IC50 for HAF cells to IC50 for human T47D cells. The format is functional.
For assay [13], the system named is PC-3. The experiment in a line: Selectivity index, ratio of IC50 for HAF cells to IC50 for human PC3 cells. The assay is classed as functional.
Assay [14] has as its system DU-145. As to the kind of experiment: Selectivity index, ratio of IC50 for HAF cells to IC50 for human DU145 cells. The format is functional.
The subject of assay [15] is HCT-116. The experiment in a line: Selectivity index, ratio of IC50 for HAF cells to IC50 for human HCT116 cells. The assay is classed as functional.
Assay [16] can be described thus: Selectivity index, ratio of IC50 for HAF cells to IC50 for human HT-29 cells. The assay is classed as functional.
Assay [17] deals with HL-60. The experiment in a line: Selectivity index, ratio of IC50 for HAF cells to IC50 for human HL60 cells. The format is functional.
Assay [18] in a line: (§1) Inhibition of colony formation in human T47D cells after 7 days by crystal violet staining based assay. The format is functional, cell-based. To be noted: 168 h.
Assay [19] has as its system T47D. The description is as §1. The assay is classed as functional, cell-based.
A short description of assay [20]: (§2) Antimigratory activity in human T47D cells assessed as inhibition of cell migration after 12 hrs by crystal violet staining based transwell migration assay. The format is functional.
In assay [21] the test system is T47D. The description is as §2. The format is functional.
In assay [22] the test system is T47D. The experiment in a line: Induction of apoptosis in human T47D cells assessed as early apoptotic cells at 20 uM after 48 hrs by Annexin V-FITC/propidium iodide staining based flow cytometry (reference value: 3.79 %). The format is functional. Background: A flow cytometer gives signals particle by particle.
Assay [23] has as its system T47D. The experiment in a line: Induction of apoptosis in human T47D cells assessed as late apoptotic cells at 20 uM after 48 hrs by Annexin V-FITC/propidium iodide staining based flow cytometry (reference value: 3.04 %). The format is functional.
Assay [24] has as its system T47D. As to the kind of experiment: Induction of apoptosis in human T47D cells assessed as early apoptotic cells at 40 uM after 48 hrs by Annexin V-FITC/propidium iodide staining based flow cytometry (reference value: 3.79 %). The assay is classed as functional.
Assay [25] concerns T47D. As to the kind of experiment: Induction of apoptosis in human T47D cells assessed as late apoptotic cells at 40 uM after 48 hrs by Annexin V-FITC/propidium iodide staining based flow cytometry (reference value: 3.04 %). The assay is classed as functional.
Assay [26] deals with T47D. As to the kind of experiment: Induction of apoptosis in human T47D cells assessed as early apoptotic cells at 80 uM after 48 hrs by Annexin V-FITC/propidium iodide staining based flow cytometry (reference value: 3.79 %). The assay is classed as functional.
The test system of assay [27] is T47D. The experiment in a line: Induction of apoptosis in human T47D cells assessed as late apoptotic cells at 80 uM after 48 hrs by Annexin V-FITC/propidium iodide staining based flow cytometry (reference value: 3.04 %). The format is functional.

With `COc1cc2c(cc1C(=O)N(C)c1ccc(F)cc1)CC[C@H]1C(C)(C)[C@@H](O)CC[C@]21C`, the IC50 in [1], in assay [2] and in assay [3] was > 25000 nM throughout.

As to `COc1ccc(NC(=O)c2cc3c(cc2OC)[C@@]2(C)CC[C@H](O)C(C)(C)[C@@H]2CC3)cc1`, the IC50 (commonly the point on the concentration scale where inhibition reaches its midpoint) in assay [1] was 410 nM; in assay [2], 280 nM; in assay [3], 30 nM; in assay [4] it was 500 nM; in assay [5], 540 nM; in assay [6] it was 510 nM. The IC50 is 520 nM in assay [7], 410 nM in [8] and 4010 nM in [9]. In addition, the “Ratio IC50” value in [10], in [11], in [12], in [13], in assay [14] and in assay [15] was 10 each time. For the same compound, the “Ratio IC50” value in [16] and in [17] was 10 each time.

On to `COc1cc2c(cc1C(=O)O)CC[C@H]1C(C)(C)C(O)CC[C@]21C` (single isomer, unassigned), for which the IC50 in assay [1], in assay [2] and in assay [3] was > 25000 nM in each case.

Take `COC(=O)c1ccc(NC(=O)c2cc3c(cc2OC)[C@@]2(C)CC[C@H](O)C(C)(C)[C@@H]2CC3)cc1`: the IC50 in [1] amounted to 6810 nM; in assay [2], 4610 nM; in [3], 2700 nM.

For the compound `COC(=O)c1ccccc1NC(=O)c1cc2c(cc1OC)[C@@]1(C)CC[C@H](O)C(C)(C)[C@@H]1CC2`, the IC50 in [1] is 7980 nM; in assay [2] it was 4310 nM; in assay [3] it was 1220 nM.

As for `COc1cc2c(cc1C(=O)Nc1ccc(C)cc1)CC[C@H]1C(C)(C)[C@@H](O)CC[C@]21C`, the IC50 came out at 1220 nM in assay [1]; 220 nM in [2]; 230 nM in assay [3]; 1480 nM in [4]; 2090 nM in assay [5]; 940 nM in assay [6]. Also, the IC50 stood at 280 nM in assay [7], 3520 nM in assay [8] and 3850 nM in assay [9]. For the same compound, the “Ratio IC50” value in assay [10], in [11], in assay [12], in [13], in assay [14] and in assay [15] was 3.1 in each case. Also, the “Ratio IC50” value in assay [16] and in assay [17] was 3.1 each time.

On to `COc1ccc(N(C)C(=O)c2cc3c(cc2OC)[C@@]2(C)CC[C@H](O)C(C)(C)[C@@H]2CC3)cc1`, for which the IC50 was > 25000 nM in assay [1], > 25000 nM in [2] and 12700 nM in [3].

As to `COc1cc2c(cc1C(=O)NC1CCCCC1)CC[C@H]1C(C)(C)[C@@H](O)CC[C@]21C`, the IC50 in assay [1] was > 25000 nM; in [2], > 25000 nM; in assay [3], 10900 nM.

On to `COc1ccc(OC(=O)c2cc3c(cc2OC)[C@@]2(C)CC[C@H](O)C(C)(C)[C@@H]2CC3)cc1`, for which the results for the IC50 in assay [1], in [2] and in assay [3] were 14300 nM, > 25000 nM and 5350 nM, respectively.

On to `CCNC(=O)c1cc2c(cc1OC)[C@@]1(C)CC[C@H](O)C(C)(C)[C@@H]1CC2`, for which the concentration for half-maximal inhibition (IC50) in assay [1] is 7650 nM; in assay [2], > 25000 nM; in assay [3], > 25000 nM.

With `COc1cc2c(cc1C(=O)Nc1ccccc1N)CC[C@H]1C(C)(C)[C@@H](O)CC[C@]21C`, the IC50 in [1] turned out to be 4310 nM; in [2], 11200 nM; in assay [3], 550 nM.

With `CC1(C)[C@@H](O)CC[C@]2(C)c3cc(O)c(C(=O)Nc4ccc(F)cc4)cc3CC[C@@H]12`, the IC50 was 9250 nM in [1], 6050 nM in [2] and 2550 nM in assay [3].

On to `COc1cc2c(cc1C(=O)Nc1ccccc1F)CC[C@H]1C(C)(C)[C@@H](O)CC[C@]21C`, for which the IC50 in assay [1], in assay [2] and in assay [3] was > 25000 nM throughout.

Regarding `COc1cc2c(cc1C(=O)Oc1ccccc1)CC[C@H]1C(C)(C)[C@@H](O)CC[C@]21C`, the half-inhibitory concentration (IC50) in assay [1], in assay [2] and in [3] was > 25000 nM in each case.

In the case of `COc1cc2c(cc1C(=O)Nc1ccc(Cl)cc1)CC[C@H]1C(C)(C)[C@@H](O)CC[C@]21C`, the results for the IC50 in assay [1], in assay [2] and in assay [3] were 1030 nM, 1460 nM and 150 nM, respectively.

As to `COc1cc2c(cc1C(=O)Nc1ccccc1C)CC[C@H]1C(C)(C)[C@@H](O)CC[C@]21C`, the figures for the IC50 in assay [1], in [2] and in assay [3] were 2300 nM, 3560 nM and 510 nM, respectively.

As to `COc1cc2c(cc1C(=O)Nc1ccc(F)cc1)CC[C@H]1C(C)(C)[C@@H](O)CC[C@]21C`, the 50% inhibitory concentration (IC50) came to 2400 nM in assay [1], 820 nM in [2] and 40 nM in [3].

Regarding `COc1cc2c(cc1C(=O)Nc1ccccc1Cl)CC[C@H]1C(C)(C)[C@@H](O)CC[C@]21C`, the IC50 in assay [1] was 3690 nM; in [2] it was 6550 nM; in [3], 820 nM.

Take `COc1cc2c(cc1C(=O)Nc1ccc(O)cc1)CC[C@H]1C(C)(C)[C@@H](O)CC[C@]21C`: the IC50 in [1] turned out to be 1900 nM; in assay [2], 3070 nM; in assay [3] it was 70 nM.

For `COc1cc2c(cc1C(=O)N(C)C)CC[C@H]1C(C)(C)[C@@H](O)CC[C@]21C`, the IC50 in assay [1], in assay [2] and in [3] was > 25000 nM throughout.

Turning to `COc1cc2c(cc1C(=O)Nc1ccc(N)cc1)CC[C@H]1C(C)(C)[C@@H](O)CC[C@]21C`, the results for the half-maximal inhibitory concentration (IC50) in assay [1], in assay [2] and in assay [3] were 3090 nM, 5210 nM and 230 nM, respectively.

Regarding `COc1cc2c(cc1C(=O)Nc1cccc(Cl)c1)CC[C@H]1C(C)(C)[C@@H](O)CC[C@]21C`, the IC50 in [1] amounted to 990 nM; in [2] it was 2230 nM; in assay [3], 260 nM.

Regarding `COc1ccccc1NC(=O)c1cc2c(cc1OC)[C@@]1(C)CC[C@H](O)C(C)(C)[C@@H]1CC2`, the values for the IC50 in [1], in [2] and in assay [3] were 200 nM, 1960 nM and 30 nM, respectively.

As for `COc1cc2c(cc1C(=O)Nc1ccccc1)CC[C@H]1C(C)(C)[C@@H](O)CC[C@]21C`, the IC50 in assay [1] worked out at 4490 nM; in assay [2], 4800 nM; in [3], 840 nM; in assay [4], 2510 nM; in assay [5], 10600 nM; in [6] it was 1540 nM. Moreover, the IC50 in assay [7] is 2450 nM; in assay [8], 12400 nM; in assay [9] it was 9460 nM. In addition, the “Ratio IC50” value in assay [10], in [11], in assay [12], in assay [13], in [14] and in assay [15] was 1.9 in each case. Moreover, the “Ratio IC50” value in [16] and in [17] was 1.9 in each case. Further, the EC50 (usually the concentration giving half of the maximal effect) in assay [18] was 987 nM; in assay [20], 37700 nM. The Activity result in assay [19] is “Dose-dependent effect”; in [21], “Dose-dependent effect”; in [22] it was 2.25%; in assay [23] it was 3.54%; in assay [24], 3.33%; in assay [25] it was 6.97%. Also, the Activity is on record as 4.7% in assay [26] and 7.72% in assay [27].
